System: normal human keratinocytes
Test: Synthesis/secretion of β-endorphin by normal human keratinocytes, assayed by EIA
Assay type: cell-based
Conditions: 24 h; for effect on the production of β-endorphin by normal human keratinocytes (in words): normal human keratinocytes in culture
Description: Norman human keratinocytes are cultivated to the point of confluence on a 24-well plate and then incubated in a culture medium for 24 hours in the presence of dibutiryl CAMP (2 mM), interleukin-1β (IL-1β) (500 pg/ml) and the test product, i.e. in this case either Tephrosia purpurea extracts according to Example 1, or stachyose, or ciceritol, at the doses indicated in Tables I, II and III respectively.
Each Tephrosia extract obtained by the process of Example 1 is provided accurately weighed and redissolved at a concentration of 50 mg/ml in an ethanol/water mixture (1/1).
Antiproteases—aprotinin 5 μg/ml, leupeptin 1 μg/ml and PMSF 1 mM —are added to each well in order to limit the action of the proteases.
Each experimental point is duplicated.
After incubation for 24 h, the culture supernatants are recovered and frozen at −80° C.
Positive stimulation controls are carried out in parallel, the cells being treated for 24 h, as above, with either IL-1β 500 pg/ml or dibutyryl CAMP 2 mM.
The β-endorphin secreted is assayed by EIA (kit from Peninsula Laboratoiries) and expressed in pg/ml.
The procedure followed is the same as in the experiments with Tephrosia purpurea extracts except that stachyose and ciceritol are used at the doses indicated in Table II, and the results obtained are indicated in Table II below.

## OC[C@H]1O[C@H](OC[C@H]2O[C@H](OC[C@H]3O[C@H](O[C@]4(CO)O[C@H](CO)[C@@H](O)[C@@H]4O)[C@H](O)[C@@H](O)[C@@H]3O)[C@H](O)[C@@H](O)[C@H]2O)[C@H](O)[C@@H](O)[C@H]1O [Stachyose, O-α-D-galactopyranosyl-[1→6]-O-α-D-galactopyranosyl-[1→6]-β-D-fructofuranosyl-α-D-glucopyranoside]
20 ng/ml, Table II stachyose experiment, Control 10 ± 3
  β-endorphin secreted: 16 ± 1 pg/mL
100 ng/ml, Table II stachyose experiment, Control 10 ± 3
  β-endorphin secreted: 22 ± 2 pg/mL
500 ng/ml, Table II stachyose experiment, Control 10 ± 3
  β-endorphin secreted: 30 ± 13 pg/mL
  effect on the production of β-endorphin by normal human keratinocytes (in words): stimulating effect

## CCCC(=O)Nc1ncnc2c1ncn2[C@@H]1O[C@@H]2COP(=O)(O)O[C@H]2[C@H]1OC(=O)CCC [dibutyryl cAMP]
2 mM, positive control, Table I batch B1 block, Control 3 ± 4
  β-endorphin secreted: 87 ± 12 pg/mL
2 mM, positive control, Table I batch B2 experiment, Control 3 ± 4
  β-endorphin secreted: 87 ± 12 pg/mL
2 mM, positive control, Table I batch B3 first series, Control 1 ± 1
  β-endorphin secreted: 10 ± 1 pg/mL
2 mM, positive control, Table I batch B3 second series, Control 1 ± 3
  β-endorphin secreted: 22 ± 1 pg/mL
2 mM, positive control, Table II ciceritol first series, Control 1 ± 2
  β-endorphin secreted: 10 ± 1 pg/mL
2 mM, positive control, Table II ciceritol second series, Control 3 ± 3
  β-endorphin secreted: 87 ± 8 pg/mL
2 mM, positive control, Table II stachyose experiment, Control 10 ± 3
  β-endorphin secreted: 22 ± 1 pg/mL
  effect on the production of β-endorphin by normal human keratinocytes (in words): stimulated the production of β-endorphin

## CO[C@H]1[C@H](O)[C@@H](O[C@H]2O[C@H](CO[C@H]3O[C@H](CO)[C@H](O)[C@H](O)[C@H]3O)[C@H](O)[C@H](O)[C@H]2O)[C@@H](O)[C@H](O)[C@@H]1O [Ciceritol, O-α-D-galactopyranosyl-[1→6]-O-α-D-galactopyranosyl-[1→2]-4-O-methyl-D-chiroinositol]
20 ng/ml, Table II ciceritol first series, Control 1 ± 2
  β-endorphin secreted: 8 ± 3 pg/mL
64 ng/ml, Table II ciceritol second series, Control 3 ± 3
  β-endorphin secreted: 44 ± 7 pg/mL
100 ng/ml, Table II ciceritol first series, Control 1 ± 2
  β-endorphin secreted: 8 ± 4 pg/mL
500 ng/ml, Table II ciceritol first series, Control 1 ± 2
  β-endorphin secreted: 9 ± 5 pg/mL
  effect on the production of β-endorphin by normal human keratinocytes (in words): stimulating effect

## IL-1β: interleukin-1β, positive stimulation control
500 pg/ml, positive control, Table I batch B1 block, Control 3 ± 4
  β-endorphin secreted: 35 ± 5 pg/mL
500 pg/ml, positive control, Table I batch B2 experiment, Control 3 ± 4
  β-endorphin secreted: 35 ± 5 pg/mL
500 pg/ml, positive control, Table I batch B3 first series, Control 1 ± 1
  β-endorphin secreted: 17 ± 3 pg/mL
500 pg/ml, positive control, Table I batch B3 second series, Control 1 ± 3
  β-endorphin secreted: 25 ± 4 pg/mL
500 pg/ml, positive control, Table II ciceritol first series, Control 1 ± 2
  β-endorphin secreted: 17 ± 3 pg/mL
500 pg/ml, positive control, Table II ciceritol second series, Control 3 ± 3
  β-endorphin secreted: 35 ± 3 pg/mL
500 pg/ml, positive control, Table II stachyose experiment, Control 10 ± 3
  β-endorphin secreted: 25 ± 4 pg/mL
  effect on the production of β-endorphin by normal human keratinocytes (in words): stimulated the production of β-endorphin
